Test results published in patent US20210315840A1, “SOLID ORAL DOSAGE FORMS OF KETAMINE DERIVATIVES” (priority 2017, published 2021).
pIC50: −log10 of the molar value.

What was measured:
[1] = Oral bioavailability in vivo after oral gavage; settings: mice
UGT2B7 = UGT2B7 (Homo sapiens, UniProt P16662); test: UGT inhibition assay UGT2B7; assay type: in vitro ADME
CYP1A2 = target: T1, CYP1A2 (Homo sapiens, UniProt P05177); test: CYP inhibition assay CYP1A2; assay type: in vitro ADME
T1 sequence (P05177 1-516): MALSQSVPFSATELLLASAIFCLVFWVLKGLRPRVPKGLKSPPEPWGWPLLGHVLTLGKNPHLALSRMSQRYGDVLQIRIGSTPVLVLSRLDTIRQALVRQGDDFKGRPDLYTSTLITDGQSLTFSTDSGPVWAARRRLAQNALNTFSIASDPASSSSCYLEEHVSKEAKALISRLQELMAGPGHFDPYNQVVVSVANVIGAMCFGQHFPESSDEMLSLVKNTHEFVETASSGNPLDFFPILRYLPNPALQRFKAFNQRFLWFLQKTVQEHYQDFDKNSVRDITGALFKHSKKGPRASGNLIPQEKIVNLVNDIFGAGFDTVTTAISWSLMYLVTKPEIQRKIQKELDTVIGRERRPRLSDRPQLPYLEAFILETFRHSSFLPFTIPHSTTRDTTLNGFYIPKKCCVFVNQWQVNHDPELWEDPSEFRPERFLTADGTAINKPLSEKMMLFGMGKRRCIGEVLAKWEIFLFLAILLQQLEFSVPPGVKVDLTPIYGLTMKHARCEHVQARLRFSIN
From the text: (§1) Cytochrome P450s (CYPs) are a family of enzymes that play a primary role in the metabolism of a wide variety of drugs. 2R,6R-hydroxynorketamine was investigated for its potential to inhibit the action of 7 key CYP enzymes using an inhibition assay measuring reduction in the formation of metabolites compared to control.

[2] = DSC compatibility with excipients and capsule shells
5-HT2A = 5-HT2A (Homo sapiens, UniProt P28223); test: Binding assay 5-HT2A
From the text: (§2) 2R,6R-hydroxynorketamine was investigated for binding to monoamine oxidases A and B, monoamine transporters, as well as a variety of 5HT receptors.

5-HT1B = 5-HT1B (Homo sapiens, UniProt P28222); test: Binding assay 5-HT1B
From the text: as §2

5-HT transporter = 5-HT transporter (Homo sapiens, UniProt P31645); test: Binding assay 5-HT transporter
From the text: as §2

[3] = system: cryopreserved hepatocytes; test: Hepatocyte stability assay, rat; settings: 3 μM
Procedure: (§3) Test compound (3 μM) was incubated with cryopreserved hepatocytes in suspension. Samples are removed at 6 time points over the course of 120 minutes and analysed by LC-MS/MS.

CYP3A4 = CYP3A4 (Homo sapiens, UniProt P08684); test: CYP inhibition assay CYP3A4, substrate midazolam; assay type: in vitro ADME; settings: for % Inhibition: Substrate = midazolam
From the text: as §1

MAO-A = MAO-A (Homo sapiens, UniProt P21397); test: Binding assay MAO-A
From the text: as §2

5-HT2B = 5-HT2B (Homo sapiens, UniProt P41595); test: Binding assay 5-HT2B
From the text: as §2

[4] = Turbidimetric aqueous solubility; assay type: physicochemical
[5] = target: norepinephrine transporter (Homo sapiens, UniProt P23975); test: Binding assay norepinephrine transporter
From the text: as §2

[6] = system: cryopreserved hepatocytes; test: Hepatocyte stability assay, human
Procedure: as §3

Metabolite profiling = assay type: in vitro ADME
MAO-B = MAO-B (Homo sapiens, UniProt P27338); test: Binding assay MAO-B
From the text: as §2

dopamine transporter = dopamine transporter (Homo sapiens, UniProt Q01959); test: Binding assay dopamine transporter
From the text: as §2

CYP2B6 = target: T2, CYP2B6 (Homo sapiens, UniProt P20813); test: CYP inhibition assay CYP2B6; assay type: in vitro ADME
T2 sequence (P20813 1-491): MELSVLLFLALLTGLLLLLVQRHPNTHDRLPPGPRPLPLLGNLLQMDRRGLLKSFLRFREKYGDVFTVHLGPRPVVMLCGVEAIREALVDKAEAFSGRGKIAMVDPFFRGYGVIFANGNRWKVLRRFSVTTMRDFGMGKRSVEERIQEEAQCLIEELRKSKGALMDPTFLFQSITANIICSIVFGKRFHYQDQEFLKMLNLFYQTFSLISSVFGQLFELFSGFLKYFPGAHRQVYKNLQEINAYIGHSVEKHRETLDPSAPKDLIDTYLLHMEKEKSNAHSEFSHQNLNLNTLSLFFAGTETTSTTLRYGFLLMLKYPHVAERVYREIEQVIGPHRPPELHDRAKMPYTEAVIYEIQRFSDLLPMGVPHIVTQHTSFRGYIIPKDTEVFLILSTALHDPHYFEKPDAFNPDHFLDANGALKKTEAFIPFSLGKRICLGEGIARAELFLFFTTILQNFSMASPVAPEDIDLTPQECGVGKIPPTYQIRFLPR
From the text: as §1

CYP3A4, sequence (P08684 whole entry): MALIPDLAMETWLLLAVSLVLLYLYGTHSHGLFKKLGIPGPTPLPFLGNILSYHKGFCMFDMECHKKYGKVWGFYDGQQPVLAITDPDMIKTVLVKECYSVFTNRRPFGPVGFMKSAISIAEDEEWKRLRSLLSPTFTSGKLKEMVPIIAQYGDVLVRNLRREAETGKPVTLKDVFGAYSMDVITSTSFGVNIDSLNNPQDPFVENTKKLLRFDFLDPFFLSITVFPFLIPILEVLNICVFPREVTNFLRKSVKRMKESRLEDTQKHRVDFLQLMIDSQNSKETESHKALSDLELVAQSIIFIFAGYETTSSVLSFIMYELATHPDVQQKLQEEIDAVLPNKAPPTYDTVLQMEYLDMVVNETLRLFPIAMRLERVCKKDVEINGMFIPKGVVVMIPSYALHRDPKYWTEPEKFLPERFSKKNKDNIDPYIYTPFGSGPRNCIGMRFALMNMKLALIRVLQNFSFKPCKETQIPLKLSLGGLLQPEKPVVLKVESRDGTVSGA
5-HT2A, sequence (P28223 whole entry): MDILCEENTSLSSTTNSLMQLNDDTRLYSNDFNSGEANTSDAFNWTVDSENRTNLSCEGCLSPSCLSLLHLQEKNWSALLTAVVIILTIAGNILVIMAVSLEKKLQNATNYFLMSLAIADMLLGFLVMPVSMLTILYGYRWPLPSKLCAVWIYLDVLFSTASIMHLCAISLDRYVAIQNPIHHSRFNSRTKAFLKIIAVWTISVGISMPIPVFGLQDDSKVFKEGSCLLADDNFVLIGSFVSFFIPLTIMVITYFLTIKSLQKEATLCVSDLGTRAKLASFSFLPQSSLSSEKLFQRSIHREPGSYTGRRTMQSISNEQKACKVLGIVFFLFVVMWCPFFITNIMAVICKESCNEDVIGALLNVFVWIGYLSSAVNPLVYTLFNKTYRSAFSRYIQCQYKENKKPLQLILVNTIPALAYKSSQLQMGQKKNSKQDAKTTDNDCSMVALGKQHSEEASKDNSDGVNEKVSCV
5-HT1B, sequence (P28222 whole entry, species assumed): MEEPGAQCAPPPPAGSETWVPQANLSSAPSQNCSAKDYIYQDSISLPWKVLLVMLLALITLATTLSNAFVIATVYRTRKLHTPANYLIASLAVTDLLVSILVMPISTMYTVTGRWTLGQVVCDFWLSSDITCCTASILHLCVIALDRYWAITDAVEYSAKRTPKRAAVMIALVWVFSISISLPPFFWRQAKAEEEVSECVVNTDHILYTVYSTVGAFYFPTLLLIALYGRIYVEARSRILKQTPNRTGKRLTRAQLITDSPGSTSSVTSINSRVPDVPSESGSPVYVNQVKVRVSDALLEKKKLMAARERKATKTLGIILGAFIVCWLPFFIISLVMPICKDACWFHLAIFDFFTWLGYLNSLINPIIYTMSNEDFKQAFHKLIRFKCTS
5-HT2B, sequence (P41595 whole entry, species assumed): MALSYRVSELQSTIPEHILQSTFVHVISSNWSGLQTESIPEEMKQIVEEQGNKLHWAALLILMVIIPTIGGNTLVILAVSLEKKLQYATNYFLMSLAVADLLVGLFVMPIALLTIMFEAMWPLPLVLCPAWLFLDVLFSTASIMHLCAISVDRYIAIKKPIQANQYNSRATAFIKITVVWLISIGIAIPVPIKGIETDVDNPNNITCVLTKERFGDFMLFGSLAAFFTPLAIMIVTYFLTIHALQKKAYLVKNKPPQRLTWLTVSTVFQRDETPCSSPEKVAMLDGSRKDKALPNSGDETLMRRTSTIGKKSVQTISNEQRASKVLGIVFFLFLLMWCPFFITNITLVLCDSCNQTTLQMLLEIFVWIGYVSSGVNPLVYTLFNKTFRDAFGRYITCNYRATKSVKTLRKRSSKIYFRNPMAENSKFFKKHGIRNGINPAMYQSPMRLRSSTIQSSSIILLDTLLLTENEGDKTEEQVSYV
norepinephrine transporter, sequence (P23975 whole entry, species assumed): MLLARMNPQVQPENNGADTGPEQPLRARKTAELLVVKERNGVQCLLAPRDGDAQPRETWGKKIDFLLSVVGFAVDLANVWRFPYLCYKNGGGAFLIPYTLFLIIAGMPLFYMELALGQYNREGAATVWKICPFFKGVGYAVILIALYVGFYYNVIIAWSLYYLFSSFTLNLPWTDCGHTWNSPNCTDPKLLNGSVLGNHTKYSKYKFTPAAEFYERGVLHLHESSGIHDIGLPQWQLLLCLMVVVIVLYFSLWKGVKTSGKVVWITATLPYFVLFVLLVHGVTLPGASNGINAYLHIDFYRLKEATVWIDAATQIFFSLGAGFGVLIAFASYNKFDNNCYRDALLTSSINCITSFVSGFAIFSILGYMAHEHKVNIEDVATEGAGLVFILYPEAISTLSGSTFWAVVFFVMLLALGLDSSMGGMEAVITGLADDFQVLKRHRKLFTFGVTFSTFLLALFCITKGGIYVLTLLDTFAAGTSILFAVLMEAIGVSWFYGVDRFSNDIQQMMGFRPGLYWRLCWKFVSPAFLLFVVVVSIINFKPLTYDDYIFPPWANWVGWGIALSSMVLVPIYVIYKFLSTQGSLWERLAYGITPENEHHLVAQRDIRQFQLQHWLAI
MAO-B, sequence (P27338 whole entry, species assumed): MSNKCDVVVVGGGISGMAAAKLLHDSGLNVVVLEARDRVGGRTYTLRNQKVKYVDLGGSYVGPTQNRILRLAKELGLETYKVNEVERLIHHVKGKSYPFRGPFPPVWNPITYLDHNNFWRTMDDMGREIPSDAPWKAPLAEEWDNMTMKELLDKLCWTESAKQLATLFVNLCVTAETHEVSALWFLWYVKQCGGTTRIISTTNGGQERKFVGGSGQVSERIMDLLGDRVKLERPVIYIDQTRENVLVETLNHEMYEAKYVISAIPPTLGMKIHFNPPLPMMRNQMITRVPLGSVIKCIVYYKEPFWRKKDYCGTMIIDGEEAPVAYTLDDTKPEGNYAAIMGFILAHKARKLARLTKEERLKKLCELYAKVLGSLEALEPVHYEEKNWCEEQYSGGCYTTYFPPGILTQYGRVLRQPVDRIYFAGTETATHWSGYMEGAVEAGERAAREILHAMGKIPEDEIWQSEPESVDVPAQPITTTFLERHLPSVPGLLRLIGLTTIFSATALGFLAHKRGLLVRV
5-HT transporter, sequence (P31645 whole entry, species assumed): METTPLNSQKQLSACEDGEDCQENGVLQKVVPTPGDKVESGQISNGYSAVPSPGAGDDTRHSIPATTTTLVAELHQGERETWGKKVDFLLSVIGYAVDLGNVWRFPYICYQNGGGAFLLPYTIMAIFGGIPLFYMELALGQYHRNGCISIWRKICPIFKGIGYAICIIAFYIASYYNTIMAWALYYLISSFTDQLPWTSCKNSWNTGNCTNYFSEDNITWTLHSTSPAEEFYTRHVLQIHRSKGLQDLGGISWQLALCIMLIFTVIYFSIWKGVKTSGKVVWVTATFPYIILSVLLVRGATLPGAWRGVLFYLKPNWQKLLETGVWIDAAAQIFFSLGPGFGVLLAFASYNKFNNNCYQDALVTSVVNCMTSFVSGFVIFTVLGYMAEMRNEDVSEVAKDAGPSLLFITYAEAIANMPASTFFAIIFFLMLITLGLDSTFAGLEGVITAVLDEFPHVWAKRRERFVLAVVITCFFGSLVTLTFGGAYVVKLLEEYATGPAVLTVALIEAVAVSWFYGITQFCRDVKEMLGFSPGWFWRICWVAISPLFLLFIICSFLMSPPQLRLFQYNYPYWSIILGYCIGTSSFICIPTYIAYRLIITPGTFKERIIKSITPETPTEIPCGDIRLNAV
MAO-A, sequence (P21397 whole entry, species assumed): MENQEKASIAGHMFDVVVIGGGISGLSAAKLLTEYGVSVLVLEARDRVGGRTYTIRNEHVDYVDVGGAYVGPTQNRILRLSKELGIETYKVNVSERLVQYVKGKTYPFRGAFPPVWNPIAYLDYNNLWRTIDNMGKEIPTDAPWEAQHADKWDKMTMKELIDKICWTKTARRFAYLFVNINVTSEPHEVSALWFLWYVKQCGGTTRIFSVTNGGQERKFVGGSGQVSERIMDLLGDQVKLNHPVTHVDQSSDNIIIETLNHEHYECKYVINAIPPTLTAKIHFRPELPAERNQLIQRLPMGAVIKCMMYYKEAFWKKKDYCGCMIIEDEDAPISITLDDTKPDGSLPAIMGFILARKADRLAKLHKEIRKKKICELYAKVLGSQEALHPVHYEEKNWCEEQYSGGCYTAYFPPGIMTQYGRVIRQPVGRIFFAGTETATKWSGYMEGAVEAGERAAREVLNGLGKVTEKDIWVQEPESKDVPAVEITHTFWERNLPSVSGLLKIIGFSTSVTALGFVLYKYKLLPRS
dopamine transporter, sequence (Q01959 whole entry): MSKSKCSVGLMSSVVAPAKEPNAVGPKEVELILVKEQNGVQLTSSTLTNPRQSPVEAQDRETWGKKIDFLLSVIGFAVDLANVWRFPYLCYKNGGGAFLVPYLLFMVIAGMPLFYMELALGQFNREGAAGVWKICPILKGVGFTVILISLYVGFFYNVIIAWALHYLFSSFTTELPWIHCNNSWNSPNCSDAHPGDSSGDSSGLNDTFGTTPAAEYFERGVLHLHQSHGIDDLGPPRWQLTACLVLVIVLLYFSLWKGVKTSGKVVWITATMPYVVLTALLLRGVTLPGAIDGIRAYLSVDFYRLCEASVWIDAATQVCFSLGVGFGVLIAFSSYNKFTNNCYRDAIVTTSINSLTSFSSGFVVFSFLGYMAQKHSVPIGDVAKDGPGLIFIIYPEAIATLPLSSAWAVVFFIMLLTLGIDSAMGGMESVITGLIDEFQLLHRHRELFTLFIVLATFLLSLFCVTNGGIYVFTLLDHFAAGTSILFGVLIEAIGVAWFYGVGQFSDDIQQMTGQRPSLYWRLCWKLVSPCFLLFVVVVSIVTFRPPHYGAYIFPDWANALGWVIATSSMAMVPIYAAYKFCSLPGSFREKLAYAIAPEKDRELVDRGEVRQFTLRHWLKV

N[C@@]1(c2ccccc2Cl)CCC[C@@H](O)C1=O [2R,6R-hydroxynorketamine, 2R,6R-2-(2-Chlorophenyl)-2-(amino)-6-hydroxycyclohexanone]
oral bioavailability ([1]; high oral dose (>30 mg/kg)): good | oral bioavailability ([1]; low oral dose): poor | inhibition of UGT2B7 (in words) (UGT2B7): does not inhibit | pIC50 (CYP1A2): ~4.00 | % Inhibition (CYP1A2; 0.4 μM): 7.55% | % Inhibition (CYP1A2; 1 μM): 8.80% | % Inhibition (CYP1A2; 4 μM): 11.7% | % Inhibition (CYP1A2; 10 μM): 19.3% | % Inhibition (CYP1A2; 40 μM): 24.8% | % Inhibition (CYP1A2; 100 μM): 48.6% | compatibility with dicalcium phosphate and microcrystalline cellulose [2]: compatibility | compatibility with lactose monohydrate (DSC) ([2]; binary mix 1:2 API:Excipient): incompatible | % Inhibition of Control Specific Binding (5-HT2A): 0% | % of Control Specific Binding (5-HT2A): 103.8% | binding to 5HT2A receptor subtype (in words) (5-HT2A): does not bind | % Inhibition of Control Specific Binding (5-HT1B): −2% | % of Control Specific Binding (5-HT1B): 102.7% | binding to 5HT1B receptor subtype (in words) (5-HT1B): does not bind | % Inhibition of Control Specific Binding (5-HT transporter): 2% | % of Control Specific Binding (5-HT transporter): 102.0% | CLint [3]: 55.2 μL/min/10^6 cells | t1/2 [3]: 25.1 min | % Inhibition (CYP3A4; 0.4 μM): 11.5% | % Inhibition (CYP3A4; 1 μM): 8.44% | % Inhibition (CYP3A4; 4 μM): 15.7% | % Inhibition (CYP3A4; 10 μM): 25.7% | % Inhibition (CYP3A4; 40 μM): 43.7% | % Inhibition (CYP3A4; 100 μM): 57.5% | pIC50 (CYP3A4; substrate midazolam): 4.16 | % Inhibition of Control Specific Binding (MAO-A): −5% | % of Control Specific Binding (MAO-A): 97.7% | % Inhibition of Control Specific Binding (5-HT2B): 5% | % of Control Specific Binding (5-HT2B): 100.9% | binding to 5HT2B receptor subtype (in words) (5-HT2B): does not bind | solubility (in words) [4]: high | % Inhibition of Control Specific Binding [5]: −16% | % of Control Specific Binding [5]: 117.6% | hepatic clearance in humans (in words) [6]: does not undergo hepatic clearance | metabolic route (in words) (Metabolite profiling): does not undergo phase I metabolism by CYP enzymes, but is glucuronidated | % Inhibition of Control Specific Binding (MAO-B): −1% | % of Control Specific Binding (MAO-B): 100.4% | % Inhibition of Control Specific Binding (dopamine transporter): 11% | % of Control Specific Binding (dopamine transporter): 87.2% | inhibition of CYP2B6 (in words) (CYP2B6): did not inhibit | % Inhibition (CYP2B6; 0.4 μM): 6.03% | % Inhibition (CYP2B6; 1 μM): 10.1% | % Inhibition (CYP2B6; 4 μM): 10.6% | % Inhibition (CYP2B6; 10 μM): 14.4% | % Inhibition (CYP2B6; 40 μM): 14.8% | % Inhibition (CYP2B6; 100 μM): 16.7%
